# Measured values reported in PubChem BioAssay AID1963838 (Molecular Pharmacology Branch, DTP, NCI, 2024).
# Test system: 855422-203-R-J1-PDC complex spheroid viability
# Assay: Anticancer human tumor 855422-203-R-J1-PDC patient-derived bladder carcinoma cell line growth inhibition [POLQ]
# Settings: for IC50: curve of first compound; for viability, T/C: stronger effect = lower value
# Outline: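 Three-cell-type spheroids modelling solid tumor plus stroma served as the readout system; POL inhibitors were tested individually and in combination, concentration ranges set by clinical Cmax where known.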
# [1] = second compound 0.0316 µM, first compound 0.0316 µM
# [2] = second compound 0.0316 µM, first compound 0.1 µM
# [3] = second compound 0.0316 µM, first compound 0.316 µM
# [4] = second compound 0.0316 µM, first compound 1 µM
# [5] = second compound 0.0316 µM, first compound 3.16 µM
# [6] = second compound 0.0316 µM, first compound 10 µM
# [7] = second compound 0.1 µM, first compound 0.0316 µM
# [8] = second compound 0.1 µM, first compound 0.1 µM
# [9] = second compound 0.1 µM, first compound 0.316 µM
# [10] = second compound 0.1 µM, first compound 1 µM
# [11] = second compound 0.1 µM, first compound 3.16 µM
# [12] = second compound 0.1 µM, first compound 10 µM
# [13] = second compound 0.316 µM, first compound 0.0316 µM
# [14] = second compound 0.316 µM, first compound 0.1 µM
# [15] = second compound 0.316 µM, first compound 0.316 µM
# [16] = second compound 0.316 µM, first compound 1 µM
# [17] = second compound 0.316 µM, first compound 3.16 µM
# [18] = second compound 0.316 µM, first compound 10 µM
# [19] = second compound 1 µM, first compound 0.0316 µM
# [20] = second compound 1 µM, first compound 0.1 µM
# [21] = second compound 1 µM, first compound 0.316 µM
# [22] = second compound 1 µM, first compound 1 µM
# [23] = second compound 1 µM, first compound 3.16 µM
# [24] = second compound 1 µM, first compound 10 µM
# [25] = second compound 3.16 µM, first compound 0.0316 µM
# [26] = second compound 3.16 µM, first compound 0.1 µM
# [27] = second compound 3.16 µM, first compound 0.316 µM
# [28] = second compound 3.16 µM, first compound 1 µM
# [29] = second compound 3.16 µM, first compound 3.16 µM
# [30] = second compound 3.16 µM, first compound 10 µM
# [31] = second compound 10 µM, first compound 0.0316 µM
# [32] = second compound 10 µM, first compound 0.1 µM
# [33] = second compound 10 µM, first compound 0.316 µM
# [34] = second compound 10 µM, first compound 1 µM
# [35] = second compound 10 µM, first compound 3.16 µM
# [36] = second compound 10 µM, first compound 10 µM
# 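Also: spheroids exposed to compounds for seven days before readout.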
compound,measurement,setting,value
COc1cccc2c1C(=O)c1c(O)c3c(c(O)c1C2=O)CC(O)(C(=O)CO)CC3OC1CC(N)C(O)C(C)O1 (stereo unspecified) + COC1C(OC(N)=O)C(O)C(Oc2ccc3c(O)c(NC(=O)c4ccc(O)c(CC=C(C)C)c4)c(=O)oc3c2C)OC1(C)C,IC50,second compound 0.0316 µM,< 31.6 nM
same,IC50,second compound 0.1 µM,< 31.6 nM
same,IC50,second compound 0.316 µM,< 31.6 nM
same,IC50,second compound 1 µM,< 31.6 nM
same,IC50,second compound 3.16 µM,< 31.6 nM
same,IC50,second compound 10 µM,< 31.6 nM
same,"viability, T/C",[1],12.4%
same,"viability, T/C",[2],11.1%
same,"viability, T/C",[3],1.99%
same,"viability, T/C",[4],0.29%
same,"viability, T/C",[5],0.38%
same,"viability, T/C",[6],1.85%
same,"viability, T/C",[7],15.1%
same,"viability, T/C",[8],10.9%
same,"viability, T/C",[9],3.53%
same,"viability, T/C",[10],0.21%
same,"viability, T/C",[11],0.32%
same,"viability, T/C",[12],1.27%
same,"viability, T/C",[13],14.5%
same,"viability, T/C",[14],10.1%
same,"viability, T/C",[15],1.84%
same,"viability, T/C",[16],0.63%
same,"viability, T/C",[17],0.37%
same,"viability, T/C",[18],1.74%
same,"viability, T/C",[19],18.5%
same,"viability, T/C",[20],10.4%
same,"viability, T/C",[21],2.23%
same,"viability, T/C",[22],0.32%
same,"viability, T/C",[23],0.3%
same,"viability, T/C",[24],2.92%
same,"viability, T/C",[25],15.4%
same,"viability, T/C",[26],10.4%
same,"viability, T/C",[27],2.63%
same,"viability, T/C",[28],0.31%
same,"viability, T/C",[29],0.58%
same,"viability, T/C",[30],1.48%
same,"viability, T/C",[31],16.2%
same,"viability, T/C",[32],9.82%
same,"viability, T/C",[33],2.61%
same,"viability, T/C",[34],0.29%
same,"viability, T/C",[35],0.47%
same,"viability, T/C",[36],1.58%
O=C(c1cc(Cc2n[nH]c(=O)c3ccccc23)ccc1F)N1CCN(C(=O)C2CC2)CC1 + COC1C(OC(N)=O)C(O)C(Oc2ccc3c(O)c(NC(=O)c4ccc(O)c(CC=C(C)C)c4)c(=O)oc3c2C)OC1(C)C,IC50,second compound 0.0316 µM,> 10000 nM
same,IC50,second compound 0.1 µM,> 10000 nM
same,IC50,second compound 0.316 µM,> 10000 nM
same,IC50,second compound 1 µM,> 10000 nM
same,IC50,second compound 3.16 µM,> 10000 nM
same,IC50,second compound 10 µM,> 10000 nM
same,"viability, T/C",[1],107%
same,"viability, T/C",[2],107%
same,"viability, T/C",[3],122%
same,"viability, T/C",[4],90.8%
same,"viability, T/C",[5],95.6%
same,"viability, T/C",[6],78.8%
same,"viability, T/C",[7],93.3%
same,"viability, T/C",[8],111%
same,"viability, T/C",[9],109%
same,"viability, T/C",[10],104%
same,"viability, T/C",[11],93.8%
same,"viability, T/C",[12],83.7%
same,"viability, T/C",[13],95.9%
same,"viability, T/C",[14],105%
same,"viability, T/C",[15],102%
same,"viability, T/C",[16],114%
same,"viability, T/C",[17],101%
same,"viability, T/C",[18],67.2%
same,"viability, T/C",[19],108%
same,"viability, T/C",[20],101%
same,"viability, T/C",[21],95.5%
same,"viability, T/C",[22],118%
same,"viability, T/C",[23],95.8%
same,"viability, T/C",[24],66.9%
same,"viability, T/C",[25],111%
same,"viability, T/C",[26],90.8%
same,"viability, T/C",[27],106%
same,"viability, T/C",[28],105%
same,"viability, T/C",[29],91.2%
same,"viability, T/C",[30],68.1%
same,"viability, T/C",[31],104%
same,"viability, T/C",[32],111%
same,"viability, T/C",[33],106%
same,"viability, T/C",[34],96.7%
same,"viability, T/C",[35],103%
same,"viability, T/C",[36],60.2%
CC1COCCN1c1cc(-c2ccnn2C)c2ccnc(-c3ccn[nH]3)c2n1 (stereo unspecified) + COC1C(OC(N)=O)C(O)C(Oc2ccc3c(O)c(NC(=O)c4ccc(O)c(CC=C(C)C)c4)c(=O)oc3c2C)OC1(C)C,IC50,second compound 0.0316 µM,169 nM
same,IC50,second compound 0.1 µM,171 nM
same,IC50,second compound 0.316 µM,176 nM
same,IC50,second compound 1 µM,193 nM
same,IC50,second compound 3.16 µM,192 nM
same,IC50,second compound 10 µM,183 nM
same,"viability, T/C",[1],107%
same,"viability, T/C",[2],71.5%
same,"viability, T/C",[3],24.6%
same,"viability, T/C",[4],9.79%
same,"viability, T/C",[5],8.71%
same,"viability, T/C",[6],8.63%
same,"viability, T/C",[7],108%
same,"viability, T/C",[8],73%
same,"viability, T/C",[9],23.4%
same,"viability, T/C",[10],11.9%
same,"viability, T/C",[11],9.78%
same,"viability, T/C",[12],9.2%
same,"viability, T/C",[13],104%
same,"viability, T/C",[14],74.5%
same,"viability, T/C",[15],24.1%
same,"viability, T/C",[16],13.5%
same,"viability, T/C",[17],11.3%
same,"viability, T/C",[18],6.39%
same,"viability, T/C",[19],104%
same,"viability, T/C",[20],85.4%
same,"viability, T/C",[21],23.1%
same,"viability, T/C",[22],13.3%
same,"viability, T/C",[23],8.72%
same,"viability, T/C",[24],7.58%
same,"viability, T/C",[25],111%
same,"viability, T/C",[26],85%
same,"viability, T/C",[27],22.9%
same,"viability, T/C",[28],11%
same,"viability, T/C",[29],6.98%
same,"viability, T/C",[30],7.28%
same,"viability, T/C",[31],118%
same,"viability, T/C",[32],81.5%
same,"viability, T/C",[33],21.1%
same,"viability, T/C",[34],10.7%
same,"viability, T/C",[35],9.81%
same,"viability, T/C",[36],7.1%
